Data from paper PMC2891058 (Biochemistry, 2010).

Tests used:
[1] = molecular target: S. typhimurium QAPRTase (quinolinate phosphoribosyltransferase) (Salmonella enterica, UniProt P30012); assay: stopped-flow tryptophan fluorescence; assay type: binding
[2] = molecular target: S. typhimurium QAPRTase (quinolinate phosphoribosyltransferase) (Salmonella enterica, UniProt P30012, E215A); assay: biochemical
[3] = molecular target: S. typhimurium QAPRTase (quinolinate phosphoribosyltransferase) (Salmonella enterica, UniProt P30012, E215D); assay: biochemical
[4] = molecular target: S. typhimurium QAPRTase (quinolinate phosphoribosyltransferase) (Salmonella enterica, UniProt P30012, E215Q); assay: biochemical
[5] = molecular target: S. typhimurium QAPRTase (quinolinate phosphoribosyltransferase) (Salmonella enterica, UniProt P30012, D236A); assay: biochemical
[6] = molecular target: S. typhimurium QAPRTase (quinolinate phosphoribosyltransferase) (Salmonella enterica, UniProt P30012, K285A); assay: biochemical
[7] = molecular target: S. typhimurium QAPRTase (quinolinate phosphoribosyltransferase) (Salmonella enterica, UniProt P30012, K154A); assay: biochemical

With `O=P(O)(O)OC[C@H]1O[C@H](OP(=O)(O)OP(=O)(O)O)[C@H](O)[C@@H]1O` [PRPP] the Kd [1] was 53 µM, the Kd [2] was 770 ± 200 µM and the Kd [3] was 417 ± 76 µM. It also gave a Kd [4] of 113 ± 24 µM, a Kd [5] of 127 ± 25 µM and a Kd [6] of roughly 1 mM. For the same molecule, the Kd [7] was greater than 1 mM.
